Measurements taken from patent publication US8124793B2, “Derivatives of ethylene methanedisulfonate as cancer chemotherapeutic agents” (priority 2007, dated 2012).

How the values were obtained:
EKVX = experiment: NCI screen, growth of human tumor cells: Non-Small Cell Lung EKVX; type: cell-based; conditions: EKVX (Non-Small Cell Lung), 10^−4 molar
Outline: (§1)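 Growth of human tumor cells, expressed as percent, was determined in the NCI screen. Test data list the cancer type and the molar concentration applied.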

NCI-H522 = experiment: NCI screen, growth of human tumor cells: Non-Small Cell Lung NCI-H522; type: cell-based; conditions: NCI-H522 (Non-Small Cell Lung), 10^−4 molar
Outline: as §1

NCI-H460 = experiment: NCI screen, growth of human tumor cells: Non-Small Cell Lung NCI-H460; type: cell-based; conditions: NCI-H460 (Non-Small Cell Lung), 10^−4 molar
Outline: as §1

NCI-H23 = experiment: NCI screen, growth of human tumor cells: Non-Small Cell Lung NCI-H23; type: cell-based; conditions: NCI-H23 (Non-Small Cell Lung), 10^−4 molar
Outline: as §1

HCC-2998 = experiment: NCI screen, growth of human tumor cells: HCC-2998 (listed under Non-Small Cell Lung); type: cell-based; conditions: HCC-2998 (under Non-Small Cell Lung), 10^−4 molar
Outline: as §1

HCT-116 = experiment: NCI screen, growth of human tumor cells: Colon Cancer HCT-116; type: cell-based; conditions: HCT-116 (Colon Cancer), 10^−4 molar
Outline: as §1

HCT-15 = experiment: NCI screen, growth of human tumor cells: Colon Cancer HCT-15; type: cell-based; conditions: HCT-15 (Colon Cancer), 10^−4 molar
Outline: as §1

HT29 = experiment: NCI screen, growth of human tumor cells: Colon Cancer HT29; type: cell-based; conditions: HT-29, 10^−4 molar
Outline: as §1

KM12 = experiment: NCI screen, growth of human tumor cells: Colon Cancer KM12; type: cell-based; conditions: KM12 (Colon Cancer), 10^−4 molar
Outline: as §1

SF-268 = experiment: NCI screen, growth of human tumor cells: CNS Cancer SF-268; type: cell-based; conditions: SF-268 (CNS Cancer), 10^−4 molar
Outline: as §1

SF-295 = experiment: NCI screen, growth of human tumor cells: CNS Cancer SF-295; type: cell-based; conditions: SF-295 (CNS Cancer), 10^−4 molar
Outline: as §1

SF-539 = experiment: NCI screen, growth of human tumor cells: CNS Cancer SF-539; type: cell-based; conditions: SF-539 (CNS Cancer), 10^−4 molar
Outline: as §1

U-251 = experiment: NCI screen, growth of human tumor cells: CNS Cancer U-251; type: cell-based; conditions: U-251 (CNS Cancer), 10^−4 molar
Outline: as §1

LOXIMVI = experiment: NCI screen, growth of human tumor cells: Melanoma LOXIMVI; type: cell-based; conditions: LOXIMVI (Melanoma), 10^−4 molar
Outline: as §1

M14 = experiment: NCI screen, growth of human tumor cells: Melanoma M14; type: cell-based; conditions: M14 (Melanoma), 10^−4 molar
Outline: as §1

MALME-3M = experiment: NCI screen, growth of human tumor cells: Melanoma MALME-3M; type: cell-based; conditions: MALME-3M (Melanoma), 10^−4 molar
Outline: as §1

SK-MEL-2 = experiment: NCI screen, growth of human tumor cells: Melanoma SK-MEL-2; type: cell-based; conditions: SK-MEL-2 (Melanoma), 10^−4 molar
Outline: as §1

SK-MEL-5 = experiment: NCI screen, growth of human tumor cells: Melanoma SK-MEL-5; type: cell-based; conditions: SK-MEL-5 (Melanoma), 10^−4 molar
Outline: as §1

UACC-257 = experiment: NCI screen, growth of human tumor cells: Melanoma UACC-257; type: cell-based; conditions: UACC-257 (Melanoma), 10^−4 molar
Outline: as §1

UACC-62 = experiment: NCI screen, growth of human tumor cells: Melanoma UACC-62; type: cell-based; conditions: UACC-62 (Melanoma), 10^−4 molar
Outline: as §1

IGROVI = experiment: NCI screen, growth of human tumor cells: Ovarian Cancer IGROVI; type: cell-based; conditions: IGROVI (Ovarian Cancer), 10^−4 molar
Outline: as §1

OVCAR-3 = experiment: NCI screen, growth of human tumor cells: Ovarian Cancer OVCAR-3; type: cell-based; conditions: OVCAR-3 (Ovarian Cancer), 10^−4 molar
Outline: as §1

OVCAR-4 = experiment: NCI screen, growth of human tumor cells: Ovarian Cancer OVCAR-4; type: cell-based; conditions: OVCAR-4 (Ovarian Cancer), 10^−4 molar
Outline: as §1

OVCAR-8 = experiment: NCI screen, growth of human tumor cells: Ovarian Cancer OVCAR-8; type: cell-based; conditions: OVCAR-8 (Ovarian Cancer), 10^−4 molar
Outline: as §1

SN12C = experiment: NCI screen, growth of human tumor cells: Renal Cancer SN12C; type: cell-based; conditions: SN12C (Renal Cancer), 10^−4 molar
Outline: as §1

DU-145 = experiment: NCI screen, growth of human tumor cells: Prostate Cancer DU-145; type: cell-based; conditions: DU-145 (Prostate Cancer), 10^−4 molar
Outline: as §1

MCF 7 = experiment: NCI screen, growth of human tumor cells: Breast Cancer MCF 7; type: cell-based; conditions: MCF 7 (Breast Cancer), 10^−4 molar
Outline: as §1

MCF7/ADR-RES = experiment: NCI screen, growth of human tumor cells: Breast Cancer MCF7/ADR-RES; type: cell-based; conditions: MCF7/ADR-RES (Breast Cancer), 10^−4 molar
Outline: as §1

MDA-MB-231/ATCC = experiment: NCI screen, growth of human tumor cells: Breast Cancer MDA-MB-231/ATCC; type: cell-based; conditions: MDA-MB-231/ATCC (Breast Cancer), 10^−4 molar
Outline: as §1

MDA-MB-435 = experiment: NCI screen, growth of human tumor cells: Breast Cancer MDA-MB-435; type: cell-based; conditions: MDA-MB-435 (Breast Cancer), 10^−4 molar
Outline: as §1

MDA-N = experiment: NCI screen, growth of human tumor cells: Breast Cancer MDA-N; type: cell-based; conditions: 10^−4 molar
Method: (§2) In the NCI screening process, each compound was tested and described by a minimum of 60 data points. The test data include, but are not limited to the type of cancer, the molar concentration used in the screen, and the percent growth of the cancer. In some cases, NMR and elemental analysis were used for structural assignment.

human cancer cells = experiment: NCI screen summary over the cancers tested (negative growth of human cancer cells); type: cell-based; conditions: 10^−4 M conc.; cancers with negative growth / cancers tested
Method: as §2
The derivatives in the tables are grouped using the same category as in the tables 1-6.

[1] = Water solubility noted at isolation; type: physicochemical; conditions: observation on the isolated product
Method: To a solution of 0.8 g of ethylene bromomethanedisulfonate (91-5) in 50 mL of glyme with 0.2 g of NaH was added followed by 0.6 g of the anhydride of 1,2-ethanedisulfonic acid. After 24 hrs, the solvent was removed and the residue taken up in 10 mL of acetone to give 0.5 g of water soluble 96-13.
To a solution of 0.58 g of ethylene methanedisulfonate in 50 mL of glyme and 0.2 g of NaH was added 0.65 g of 8-quinolinesulfonyl chloride. After 3 hrs., the solution was filtered, and the solid was washed with CH2Cl2 and dried overnight to give 1.155 g of a mixture of NaCl, Na2CO3, and product. A sample was H2O soluble and the calculated yield, based on assumption of the NaCl and Na2CO3, was 0.848 g (71%) of 97-4.

O=S1(=O)OCCOS(=O)(=O)C1c1cccc2cccnc12 [NSC 698122, ethylene 8-quinolylmethanedisulfonate]
percent of growth of human tumor cells (EKVX): 28%
percent of growth of human tumor cells (NCI-H522): −40%
percent of growth of human tumor cells (NCI-H460): −40%
percent of growth of human tumor cells (NCI-H23): 27%
percent of growth of human tumor cells (HCC-2998): −12%
percent of growth of human tumor cells (HCT-116): 16%
percent of growth of human tumor cells (HCT-15): 18%
% Growth (HT29): −64%
percent of growth of human tumor cells (KM12): 7%
percent of growth of human tumor cells (SF-268): 24%
percent of growth of human tumor cells (SF-295): 18%
percent of growth of human tumor cells (SF-539): 30%
percent of growth of human tumor cells (U-251): −53%
percent of growth of human tumor cells (LOXIMVI): −43%
percent of growth of human tumor cells (M14): 10%
percent of growth of human tumor cells (MALME-3M): 29%
percent of growth of human tumor cells (SK-MEL-2): 24%
percent of growth of human tumor cells (SK-MEL-5): 15%
percent of growth of human tumor cells (UACC-257): 13%
percent of growth of human tumor cells (UACC-62): −46%
percent of growth of human tumor cells (IGROVI): 17%
percent of growth of human tumor cells (OVCAR-3): 25%
percent of growth of human tumor cells (OVCAR-4): 30%
percent of growth of human tumor cells (OVCAR-8): 19%
percent of growth of human tumor cells (SN12C): 28%
percent of growth of human tumor cells (DU-145): 2%
percent of growth of human tumor cells (MCF 7): 12%
percent of growth of human tumor cells (MCF7/ADR-RES): −5%
percent of growth of human tumor cells (MDA-MB-231/ATCC): 26%
percent of growth of human tumor cells (MDA-MB-435): 19%
percent of growth of human tumor cells (MDA-N): 10%
Percentage of cancers showing negative growth cancers tested (human cancer cells): 10^−4 M conc. = 8/31 = 25.8%
water solubility [1]: H2O soluble
